# Test results published in patent US20170143738A1, “SOLID FORMULATION AND METHOD FOR STABILIZING THE SAME” (EA Pharma Co., Ltd., priority 2014, published 2017).
# Assays:
# [1] = Storage stability of Elobixibat alone or mixed 1:1 with an additive: total related substance(s) by HPLC; type: physicochemical; settings: stored in an open state for 2 weeks, 60° C. and 75% relative humidity
# Method: (§1) 1,1-dioxo-3,3-dibutyl-5-phenyl-7-methylthio-8-(N—{(R)-1′-phenyl-1′-[N′-(carboxymethyl)carbamoyl]methyl}carbamoylmethoxy)-2,3,4,5-tetrahydro-1,5-benzothiazepine (Elobixibat) and an additive shown in Table 1 were mixed in a weight ratio of 1:1. Thereby, the mixtures according to Reference Examples 2 to 10 were obtained. The mixture of each of Reference Examples 2 to 10, and only Elobixibat as Reference Example 1 was independently stored in an open state for 2 weeks under the conditions of 60° C. and 75% relative humidity. The material of Reference Example 1 and the mixtures according to Reference Examples 2 to 10 after storage were independently dispersed and dissolved in acetonitrile aqueous solution. The total amount of related substance(s) in the aforementioned aqueous solution was calculated as the sum of the areas in percentage for Elobixibat by the measurement in accordance with an HPLC method. In addition, the presence or absence of coloration of the mixtures of Reference Examples 1 to 7 after storage was visually observed. “%” shown in Table 1 indicates percent by weight.
# [2] = Visual observation of coloration of Elobixibat and Elobixibat/additive mixtures after storage; type: physicochemical; settings: 60° C. and 75% relative humidity, visually observed
# Method: as §1
smiles,measurement,setting,value
"CCCCC1(CCCC)CN(c2ccccc2)c2cc(SC)c(OCC(=O)N[C@@H](C(=O)NCC(=O)O)c3ccccc3)cc2S(=O)(=O)C1 [Reference Example 1, 1,1-dioxo-3,3-dibutyl-5-phenyl-7-methylthio-8-(N—{(R)-1′-phenyl-1′-[N′-(carboxymethyl)carbamoyl]methyl}carbamoylmethoxy)-2,3,4,5-tetrahydro-1,5-benzothiazepine]",Increase of the amount of related substance(s) after storage (in words),[1]; summary of Table 1,a great increase of the related substance(s) was not observed
same,Total amount of related substance(s) after storage,"[1]; weight ratio 1:1 with additive, sum of HPLC areas in percentage for Elobixibat",0.6%
same,Coloration: Before storage → after storage,[2]; colour before and after 2 weeks open storage,White → white
same,Coloration after storage,[2]; stored in an open state for 2 weeks,Not observed
